The test system of data set [1] is SARS-CoV-2. Description: microbe, parasite or virus in culture. It is filed as cell-based. The following applies: for Emax: Severe acute respiratory syndrome coronavirus 2, HeLa-ACE2, 24 h, read-out: HeLa-ACE2 CoV-2 Sinf Average; for HeLa-ACE2 SI: selectivity index, uninfected HeLa-ACE2 CC50 / SARS-CoV-2 EC50.
A short description of data set [2]: Uninfected HeLa-ACE2 24 h live/dead cytotoxicity counter screen. It counts as cell-based, human. As to conditions: human, uninfected HeLa-ACE2 cells.
Data set [3] deals with HeLa-ACE2 cells. The description is as above. It is filed as cell-based, human.
Data set [4] has as its system SARS-CoV-2. Description: microbe, parasite or virus in culture. It is filed as cell-based. As to conditions: for Emax: Severe acute respiratory syndrome coronavirus 2, Calu-3, 48 h, read-out: Calu-3 CoV-2 Sinf Average; for Calu-3 SI: selectivity index, uninfected Calu-3 CC50 / SARS-CoV-2 EC50.
In data set [5] the test system is SARS-CoV-2. Description: microbe, parasite or virus in culture. It counts as cell-based. As to conditions: for Emax: Severe acute respiratory syndrome coronavirus 2, HeLa-ACE2, 10 h, read-out: HeLa-ACE2 TOA CoV-2 Sinf Average; for EC50: Severe acute respiratory syndrome coronavirus 2, HeLa-ACE2, read-out: HeLa-ACE2 TOA CoV-2 EC50 GeoMean.
Data set [6] deals with SARS-CoV-2. It is filed as cell-based. The following applies: for Synergy score with remdesivir (δ): HeLa-ACE2; for HeLa-ACE2 synergy score with remdesivi: combination with remdesivir.
Data set [7] relates to HeLa-ACE2 cells. The data set is described as follows: Total cell count in the HeLa-ACE2 TOA (time of addition) assay. The following applies: Homo sapiens, HeLa-ACE2; read-out: HeLa-ACE2 TOA cell count EC50 GeoMean. It is filed as cell-based, human.
The subject of data set [8] is HeLa-ACE2 cells. The data set is described as follows: cells. The following applies: Homo sapiens; for Emax: HeLa-ACE2, 24 h, read-out: HeLa-ACE2 cell count Sinf Average; for EC50: HeLa-ACE2, read-out: HeLa-ACE2 cell count EC50 GeoMean.
Data set [9] concerns Calu-3 cells. The data set is described as follows: cells. The following applies: Homo sapiens; for EC50: Calu-3, read-out: Calu-3 cell count EC50 GeoMean.
The conditions of data set [10]: cited from earlier work.
Data set [11] in a line: HepG2 72 h CellTiter-Glo cytotoxicity. As to conditions: human, HepG2 cells. In general terms: Cellular ATP, detected with luciferase, serves as a proxy for viable cell number.
For data set [12], the system named is HepG2. The data set is described as follows: HepG2 72 h CellTiter-Glo cytotoxicity. As to conditions: 72 h.
Data set [13] is described as follows: HEK293T 72 h CellTiter-Glo cytotoxicity. As to conditions: human, HEK293T cells.
Data set [14] has as its system HEK293T. Description: HEK293T 72 h CellTiter-Glo cytotoxicity. The following applies: 72 h.
Data set [15] can be described thus: Uninfected Calu-3 48 h Cell-Titer Glo cytotoxicity counter screen. The following applies: human, uninfected Calu-3 cells. Background: Counterscreens check selectivity or assay interference.
In data set [16] the test system is Calu-3 cells. The description is as above.
Data set [17] concerns Calu-3 cells.
In data set [18] the test system is Calu-3 cells. This is another data set of the same source.
The test system of data set [19] is HepG2. The following applies: human, 72 h.
Data set [20] has as its system HEK293T. The following applies: human, 72 h.
The nature of another data set: in vitro. The following applies: human, Calu-3 Uninf. cells CC50 (µM).
Setting [21] is: Severe acute respiratory syndrome coronavirus 2, HeLa-ACE2, detail column, read-out: HeLa-ACE2 CoV-2 EC50 GeoMean.
Where [22] appears, read: Severe acute respiratory syndrome coronavirus 2, HeLa-ACE2, reconfirmed hits, read-out: HeLa-ACE2 SARS-CoV-2 EC50.
The mark [23] stands for this setting: reconfirmed hits, read-out: HeLa-ACE2 Uninf. cells CC50.
[24] abbreviates: read-out: HeLa-ACE2 uninfected cytotoxicity CC50 GeoMean.
The mark [25] stands for this setting: human, uninfected HeLa-ACE2 cells, 24 h.
[26] abbreviates: Severe acute respiratory syndrome coronavirus 2, Calu-3, reconfirmed hits, read-out: Calu-3 SARS-CoV-2 EC50.
[27] abbreviates: curve-fit effect at infinite concentration, average.

This is an account of results in article PMC8175350, “Drug repurposing screens identify chemical entities for the development of COVID-19 interventions” (Nature Communications, 2021).

Structures can show the parent of a compound that is named as a salt. Where two headings read alike, the source gives them in different places.

As a reminder, the EC50 is the concentration needed to bring the measured effect to its halfway point. What is called CC50 is the concentration giving 50% cytotoxicity. Usually Cmax stands for the maximum level reached in the sampled fluid or tissue.

Consider `CCCCN(CCCC)CCC(O)c1cc2c(Cl)cc(Cl)cc2c2cc(C(F)(F)F)ccc12` (centres unmarked) [Halofantrine HCl], for which the Emax in the data set with SARS-CoV-2 [1] is 100%; with SARS-CoV-2 [4], 100%; in the data set on SARS-CoV-2 [5], 100%; in the data set on HeLa-ACE2 cells [8], -39%. Moreover, the EC50 is 1.16 µM in the data set with SARS-CoV-2 [1] (setting [21]); 0.33 µM in the data set on SARS-CoV-2 [1] (setting [22]); greater than 8.47 µM with SARS-CoV-2 [4] (setting [26]); 4.44 µM in the data set with SARS-CoV-2 [5]; greater than 9.61 µM in the data set on HeLa-ACE2 cells [7]; greater than 6.19 µM in the data set on HeLa-ACE2 cells [8]. Besides, the EC50 in the data set on Calu-3 cells [9] was greater than 9.98 µM. The “HeLa-ACE2 SI” value with SARS-CoV-2 [1] is recorded as greater than 20.66. Moreover, the CC50 at 24 h in data set [2] (setting [23]) was 18.7 µM; in data set [2] (setting [24]), greater than 23.9 µM. In the data set with HeLa-ACE2 cells [3] (setting [25]), the “HeLa-ACE2 uninfected cytotoxicity Sinf Average” value is -100%. The “Calu-3 SI” value in the data set with SARS-CoV-2 [4] is on record as greater than 2.67. Also, in the data set on SARS-CoV-2 [5], the “TOA:HeLa-ACE2 EC50 Ratio” value amounted to 3.833. Moreover, the “Synergy score with remdesivir (δ)” value with SARS-CoV-2 [6] is reported as −3.51. Besides, the “HeLa-ACE2 synergy score with remdesivi” value in the data set on SARS-CoV-2 [6] was -3.509 δ. Besides, the “Approx. t1/2” value in data set [10] (human, ref [33]-[49]) is 58 h. For the same compound, the Cmax in data set [10] (read-out: Approx. Cmax, human oral, ref [33]-[49]) is 1 µM. Also, the CC50 at 72 h in data set [11] stood at 30.5 µM; in [13] it was 25.8 µM. Moreover, the “HepG2 72-hour cytotoxicity Sinf Average” value in the data set with HepG2 [12] is listed as -100%. Further, the “HEK293T 72-hour cytotoxicty Sinf Average” value in the data set with HEK293T [14] is given as -100%. Also, the CC50 at 48 h in data set [15] (Calu-3 Uninf. cells CC50 (µM), reconfirmed hits) is greater than 22.6 µM; in [15] (Calu-3 uninfected cytotoxicity CC50 GeoMean), greater than 22.6 µM. In addition, the “Calu-3 uninfected cytotoxicity Sinf Average” value in the data set with Calu-3 cells [16] (human, uninfected Calu-3 cells, 48 h) was -100%.

Deazaneplanocin A: in the data set on SARS-CoV-2 [1] (setting [27]), the “HeLa-ACE2 CoV-2 Sinf Average” value is -100%. The EC50 with SARS-CoV-2 [1] (unrounded geometric mean, read-out: HeLa-ACE2 CoV-2 EC50 GeoMean) is greater than 9.59 µM; with SARS-CoV-2 [4] (unrounded geometric mean, read-out: Calu-3 CoV-2 EC50 GeoMean) it was 0.0568 µM; in the data set on Calu-3 cells [17] (read-out: Calu-3 cell count EC50 GeoMean, unrounded geometric mean) it was 0.108 µM. Further, the “HeLa-ACE2 uninfected cytotoxicity Sinf Average” value in the data set with HeLa-ACE2 cells [3] (setting [27]) is listed as -79%. The CC50 in the data set with HeLa-ACE2 cells [3] (unrounded geometric mean, read-out: HeLa-ACE2 uninfected cytotoxicity CC50 GeoMean) was greater than 7.95 µM; in the data set with Calu-3 cells [16] (read-out: Calu-3 uninfected cytotoxicity CC50 GeoMean, unrounded geometric mean), greater than 10.3 µM. Besides, in the data set on SARS-CoV-2 [4] (setting [27]), the “Calu-3 CoV-2 Sinf Average” value was -85%. Also, in the data set with Calu-3 cells [17] (setting [27]), the “Calu-3 cell count Sinf Average” value was 62%. Further, the “Calu-3 uninfected cytotoxicity Sinf Average” value with Calu-3 cells [16] (setting [27]) is -70%.

In the case of `COc1ccc2c(O[C@@H]3C[C@H]4C(=O)N[C@]5(C(=O)NS(=O)(=O)C6CC6)C[C@H]5/C=C\CCCCN(C)C(=O)[C@@H]4C3)cc(-c3nc(C(C)C)cs3)nc2c1C` [Simeprevir], the Emax with SARS-CoV-2 [1] worked out at 100%; with SARS-CoV-2 [4], 100%; in the data set on SARS-CoV-2 [5], 100%; in the data set on HeLa-ACE2 cells [8], 100%; in the data set with Calu-3 cells [9] (Calu-3, 48 h, read-out: Calu-3 cell count Sinf Average), 100%. For the same compound, the EC50 in the data set on SARS-CoV-2 [1] (setting [21]) was greater than 7.88 µM; with SARS-CoV-2 [1] (setting [22]) it was 7.88 µM; with SARS-CoV-2 [4] (Severe acute respiratory syndrome coronavirus 2, Calu-3, detail column, read-out: Calu-3 CoV-2 EC50 GeoMean), greater than 7.7 µM; in the data set on SARS-CoV-2 [4] (setting [26]), 7.7 µM; with SARS-CoV-2 [5], greater than 8.62 µM; with HeLa-ACE2 cells [7], greater than 9.59 µM. Further, the EC50 in the data set with HeLa-ACE2 cells [8] is greater than 9.47 µM; in the data set on Calu-3 cells [9] it was greater than 9.6 µM. Also, the “HeLa-ACE2 SI” value with SARS-CoV-2 [1] was greater than 2.81. The CC50 at 24 h in data set [2] (setting [23]) and in data set [2] (setting [24]) was greater than 22.2 µM in each case. The “HeLa-ACE2 uninfected cytotoxicity Sinf Average” value in the data set with HeLa-ACE2 cells [3] (setting [25]) is recorded as -100%. In the data set with SARS-CoV-2 [4], the “Calu-3 SI” value is listed as greater than 2.91. In addition, the “Synergy score with remdesivir (δ)” value in the data set with SARS-CoV-2 [6] is reported as −0.67. For the same compound, in the data set on SARS-CoV-2 [6], the “HeLa-ACE2 synergy score with remdesivi” value is -0.667 δ. Also, in the data set on Calu-3 cells [18], the “uninfected Calu-3 CC50” value is listed as > 22.39 ×÷ 1.591 (n=6) μM. Besides, the “Calu-3 uninfected cytotoxicity Sinf Average” value in the data set on Calu-3 cells [18] (human, 48 h) was -100%. In addition, in the data set on HepG2 [19], the “HepG2 72-hour cytotoxicity Sinf Average” value was -100%. Also, the “HEK293T 72-hour cytotoxicty Sinf Average” value in the data set with HEK293T [20] is -102%. In addition, the CC50 at 48 h in “in vitro” is greater than 22.4 µM. Moreover, the Cmax in data set [10] (human, in vivo, po) is 32 µM. Besides, the “Approx. t1/2” value in data set [10] (human, ref [33]-[49]) was 16 h.
